This note sets out measurements from patent publication US11911356B2, “Regulation of mutant TERT by BRAF V600E/map kinase pathway through FOS/GABP in human cancer” (THE JOHNS HOPKINS UNIVERSITY, priority 2017, dated 2024).

Assay [1] concerns K1 cells xenograft tumors. As to the kind of experiment: Xenograft tumorigenicity assay. Format: in vivo. The following applies: K1 xenograft in nude mice. An excerpt:
FIG. 1A-1G. Cooperative role of BRAF V600E and TERT in the oncogenic behavior and tumor growth of cancer cells. Specific shRNA against BRAF and siRNA against TERT were used to knock down BRAF and TERT in the indicated cancer cells, respectively, followed by performance of assays of MTT of cell proliferation (FIG. 1A), transwell cell migration (FIG. 1B), cell invasion (FIG. 1C), and colony formation in soft agar (FIG. 1D) (with representative images shown in the left panel and the average colony numbers in the right panel). Western blotting analysis of TERT and phosphorylation of ERK (p-ERK) was performed for K1 cells (FIG. 1E), from which xenograft tumors were derived to test the role of TERT and BRAF V600E in tumor development and growth (FIG. 1F, FIG. 1G). […] The “Control” in FIG. 1A-1D represented the combination of scramble shRNA and Control siRNA. […] The red horizontal bar on the left of FIG. 1D represents 100 μm; colonies larger than this size were counted and colony numbers are shown on the right of the panel. […]
All animal experiments were approved and performed according to the guidelines of the Institutional Animal Care and Use Committee (IACUC) of Johns Hopkins University. […] Tumor size was measured twice a week on the skin surface of the animal using a caliper and tumor volume was calculated using the formula (width^2×length)/2 as previously described. […]

In another assay the test system is TERT promoter. As to the kind of experiment: TERT promoter luciferase reporter assay in K1 cells. The assay is classed as cell-based, human. The following applies: K1 cells harboring BRAF V600E; PLX4032 0.5 uM. Here is the method: FIG. 2A-2G. BRAF V600E/MAPK pathway regulated TERT expression. (FIG. 2A) TERT expression was analyzed by qRT-PCR in cells treated with 0.5 uM PLX4032 or 0.2 uM AZD6244 for 24 hours (upper panel). The corresponding levels of phosphorylated ERK (p-ERK), total ERK (t-ERK), and beta-actin were detected by Western blotting (lower panel). The relative TERT mRNA expression levels were normalized to the DMSO control group. (FIG. 2B) Luciferase reporting assay of TERT promoter activities in K1 cells treated with DMSO or PLX4032 (0.5 uM). (FIG. 2C, 2D) Specific shRNA against BRAF were used to knock down BRAF in thyroid cancer cell lines BCPAP and K1 and melanoma cell line A375. Scramble shRNA was used as control. Cells were then subjected to Western blotting (FIG. 2C) and qRT-PCR (FIG. 2D). […]
For promoter activity assay, cells were seeded in triplicate into a 24-well plate and then transfected with 300 ng pGL3 plasmids containing the TERT, GAPBA, or GABPB promoter, together with 12 ng Renilla luciferase (pRL-TK) plasmid (normalizing control) using Lipofectamine 3000 (Invitrogen). At 24 hours after the transfection, cells were lysed and luciferase activities were measured using the Dual-Luciferase Reporter Assay System (Promega). Results were presented as relative luciferase activities, which were obtained by dividing firefly luciferase values with Renilla luciferase values for each set of reading.

Structures are written as SMILES.

On to `CCCS(=O)(=O)Nc1ccc(F)c(C(=O)c2c[nH]c3ncc(-c4ccc(Cl)cc4)cc23)c1F` [PLX4032], for which, in assay [1] (10 mg/kg PLX4032 daily by oral gavage), the tumor growth result is “inhibited tumor growth”. Moreover, in assay [1] (PLX4032 10 mg/kg daily combined with stable TERT knockdown (shTERT)), the tumor growth entry is recorded as “nearly completely abolished tumor growth”. Moreover, in the assay on TERT promoter, the “activities of the mutated TERT promoter (C228T or C250T)” value is listed as “dramatically reduced” and the “activity of the wild-type TERT promoter” value is recorded as “limited effect”.
